Molecular target: T1, HDAC10 (Homo sapiens, UniProt Q969S8)
T1 construct: purchased Reaction Biology
T1 sequence (Q969S8 1-669): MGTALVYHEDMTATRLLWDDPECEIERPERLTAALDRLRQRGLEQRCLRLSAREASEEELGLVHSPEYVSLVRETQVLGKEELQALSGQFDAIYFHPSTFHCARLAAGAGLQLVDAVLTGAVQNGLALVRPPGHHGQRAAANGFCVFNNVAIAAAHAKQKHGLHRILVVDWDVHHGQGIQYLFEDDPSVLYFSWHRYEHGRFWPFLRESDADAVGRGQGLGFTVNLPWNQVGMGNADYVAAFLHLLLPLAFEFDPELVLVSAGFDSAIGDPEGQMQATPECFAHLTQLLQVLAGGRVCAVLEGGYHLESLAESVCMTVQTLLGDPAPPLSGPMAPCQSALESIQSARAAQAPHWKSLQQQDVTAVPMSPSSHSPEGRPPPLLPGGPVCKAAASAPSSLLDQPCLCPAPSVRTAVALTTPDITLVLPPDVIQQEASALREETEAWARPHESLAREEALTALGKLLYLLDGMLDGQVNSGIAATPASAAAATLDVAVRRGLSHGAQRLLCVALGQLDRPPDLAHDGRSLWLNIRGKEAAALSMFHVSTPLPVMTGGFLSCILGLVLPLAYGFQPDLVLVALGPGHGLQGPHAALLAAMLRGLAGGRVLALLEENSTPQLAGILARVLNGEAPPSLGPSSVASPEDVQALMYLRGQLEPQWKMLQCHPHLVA
Experiment: HDAC assay from Reaction Biology, fluorogenic substrate
Type: biochemical
Conditions: 10-dose response curve; read-out: Compound IC50 HDAC10
Procedure: Compounds 1 and 3 were tested in a HDAC assay from Reaction Biology® against 10 different HDACs.
Base Reaction buffer: 50 mM Tris-HCl, pH8.0, 137 mM NaCl, 2.7 mM KCl, and 1 mM MgCl2,
Add fresh: 1 mg/ml BSA, 1% DMSO
Fluorogenic HDAC General Substrate (HDAC1, HDAC2, HDAC3, HDAC6, HDAC10, and HDAC11): 50 μM, Arg-His-Lys-Lys(Ac)-AMC
• (HDAC8 only substrate: 50 μM, Arg-His-Lys(Ac)-Lys(Ac))-AMC Class2A Substrate (HDAC4, HDAC5, HDAC7, and HDAC9): Boc-Lys(trifluoroacetyl)-AMC For SIRTs 1-3, general Class1 HDAC substrate and 500 μM NAD+ For SIRT5, Ac-Lys-succ and 500 μM NAD+ Reaction Procedure Deacetylation Step • 1. Delivered 2× enzyme in wells of reaction plate except in the control wells and added buffer to control wells. • 2. Delivered compounds in 100% DMSO into the enzyme mixture by Acoustic technology (Echo550; nanoliter range). Spin down and pre-incubation. • 3. Delivered 2× Substrate Mixture (Fluorogenic HDAC Substrate and co-factor if applicable) in all reaction wells to initiate the reaction. Spin and shake. • 4. Incubated for 30 min for Class 2A, 1 hr for HDAC1, 2, 3, and 6, and 2 hr for the rest of HDACs and SIRTs at 30° C. with seal. Development Step • 5. Added Developer with Trichostatin A (or Nicotinamide for SIRTs) to stop the reaction and to generate fluorescent color. • 6. The fluorescence that was generated was detected with excitation (Ex) at […] and emission (Em) at 460 nM by the EnVision Multilabel Plate Reader (PerkinElmer®, Santa Clara, CA, USA). • 7. IC50 values, presented in Table 1, were derived from a 10-dose response curve.

## CN(C(=O)CCCCCCCNc1cccc2c1C(=O)N(C1CCC(=O)NC1=O)C2=O)c1ccc(NC(=O)CCCCCCC(=O)NO)cc1 (stereo not shown) [Compound 3, N^1-(4-(8-((2-(2,6-dioxopiperidin-3-yl)-1,3-dioxoisoindolin-4-yl)amino)-N-methyloctanamido)phenyl)-N^8-hydroxyoctanediamide]
  IC50: 6.58 µM

Source: patent publication US12569563B2, “Selective HDAC6 degraders and methods of use thereof” (DANA-FARBER CANCER INSTITUTE, INC., priority 2019, dated 2026)
